Test results as given in patent US10654851B2, “Deuterated 3-(4,5-substituted aminopyrimidine)phenyl derivatives and use thereof” (NANJING CHUANGTE PHARMACEUTICAL TECHNOLOGY CO., LTD, priority 2016, dated 2020).

Assays:
hERG potassium channels = target: T1, hERG potassium channels (Homo sapiens, UniProt Q12809); assay: hERG potassium channel whole cell patch clamp; format: cell-based; details: HEK293 cells stably expressing hERG, tail current, read-out: IC50 of inhibition on hERG potassium channels at cell level
T1 construct: expressed in transfected cells; host or cells: HEK293
Protocol: 3) Assay on the Effects of the Compounds on hERG Potassium Channels
HEK293 cells stably expressing an hERG channel were cultured in 35 mm culture dishes and placed in a 37° C./5% CO2 incubator for at least 24 hours before the experiment. The cell culture medium was DMEM containing 10% fetal bovine serum and 250 μg/mL G418.
The ingredients of the extracellular fluid used in the whole cell patch clamp experiment were (mM): NaCl, 137; KCl, 4; CaCl2, 1.8; MgCl2, 1; HEPES, 10; glucose 10; pH 7.4 (NaOH titration). All tested compounds and control compound solutions contained 0.3% DMSO. The intracellular fluid (mM) was: K Aspartate, 130; MgCl2, 5; EGTA 5; HEPES, 10; Tris-ATP 4; pH 7.2 (KOH titration).
One dish was taken out for each experiment, washed twice with the extracellular fluid, and placed on an inverted microscope stage. The whole cell patch clamp experiment was performed at room temperature with a tip resistance of 3 to 5 MΩ for a borosilicate glass microelectrode. After the whole cell recording mode, the membrane potential was clamped at −80 mV, gave a +50 mV depolarization voltage stimulation to the cells every 30 s and then repolarized to −50 mV for 3 s after 2 s to elicit hERG tail current. The cells were given a −50 mV repolarization voltage for 50 ms before the depolarization voltage stimulation, and the current recorded under this voltage was used as a baseline for calculating the hERG tail current. The hERG tail current was stably recorded for at least 3 minutes in the extracellular fluid before the addition of the compound. When the amplitude change of the hERG tail current was less than 5% after perfusion administration, it was considered that the drug action reached a steady state. Data was acquired and analyzed by a pCLAMP 10.1 software program. […] The inhibition rate of the tested compound to the hERG current was calculated according to the following equation: % inhibition rate={1−(remaining current amplitude)/(control current amplitude)}×100 […]

[1] = target: EGFR (L858R) single mutant (Homo sapiens, UniProt P00533, L858R); assay: HTRF kinase activity assay, EGFR (L858R) single mutant
Protocol: (§1) The above kinases were purchased from Invitrogen Corporation Shanghai Representative Office.
(§2) The reaction concentration of the compounds was three times diluted from 1000 nM for 9 concentrations. The concentration of DMSO in the reaction system was 2%. The enzyme and the compound were pre-incubated for 15 minutes, and then ATP and substrate were added to initiate the reaction. All enzyme catalyzed reactions were carried out at 25° C. for 60 minutes. […] Measure the HTRF fluorescence value with CLARIOstar (BMG LABTECH) after the incubation, and IC50 was determined using GraphPad Prism 5.0.

[2] = target: T2, Exon19 deletion EGFR in HCC827 cells (Homo sapiens, UniProt P00533, DEL746-750); assay: Exon19 deletion EGFR cell phosphorylation assay (HCC827); format: cell-based; details: 2 h incubation, read-out: Cell level EGFR phosphorylation IC50, HCC827 (EGFR del19)
T2 construct: Assayed the endogenous p-EGFR of the cell lysate; host or cells: HCC827
Protocol: Test 2: Exon19 Deletion EGFR (Activated Single Mutant) Cell Phosphorylation Assay
The human non-small cell lung cancer cell line HCC827 (Exon19 deletion EGFR, activated single mutant) was purchased from the cell bank of the Chinese Academy of Sciences. HCC827 was maintained in an RPMI1640 culture media containing 10% fetal bovine serum. The cells were grown at 37° C. in a humidified incubator containing 5% CO2. Assayed the endogenous p-EGFR of the cell lysate according to the Phospho-EGFR HTRF kit (Cisbio, No. #64HR1PEG). 100 μL of cells were added to a 96-well plate (50000 cells/well), and cultured overnight at 37° C. in a cell incubator with 5% CO2. 4-fold serial dilutions was added to the cells, the maximum concentration of the reaction being 10 μM. The culture solution was discarded after 2 hours' continuous incubation, lysate (25 μL/well) was added immediately, lyse the cells at room temperature for 10 minutes, then 12 μL/well of cells were added to a Greiner white small-volume 384-well plate, detection antibodies (Anti-phospho EGFR-d2 and Anti-EGFR-Tb) were added, and the cells were incubated at 25° C. for 60 minutes. The HTRF fluorescence value was measured with CLARIOstar (BMG LABTECH) after the incubation, and IC50 was determined using GraphPad Prism 5.0.

[3] = target: wild type EGFR in A431 cells (Homo sapiens, UniProt P00533); assay: EGFR wild type cell phosphorylation assay (A431)
Protocol: Test 1: EGFR Wild Type Cell Phosphorylation Assay
The human epidermoid carcinom cell line A431 expressed wild type EGFR and was purchased from the cell bank of the Chinese Academy of Sciences. A431 was maintained in an EMEM culture media containing 10% fetal bovine serum. The cells were grown at 37° C. in a humidified incubator containing 5% CO2. Endogenous p-EGFR in the cell lysate was assayed according to Phospho-EGFR HTRF kit (Cisbio, No. #64HR1PEG). Cells were plated (50000 cells/well) in a volume of 100 μL of complete media in 96-well cell culture plates and cultured at 37° C. with 5% CO2 overnight. 4-fold serial dilutions was added to the cells, the maximum concentration of the reaction being 10 μM. The cells were incubated continuously for 2 hours, 100 ng/well of EGF was added, incubated at 37° C. for 10 minutes, then the culture solution was discarded, lysis buffer (25 μL/well) was added immediately, lyse the cells at room temperature for 10 minutes, then 12 μL/well of the cell lysates were added to a Greiner white small-volume 384-well plate, detection antibodies (Anti-phospho EGFR-d2 and Anti-EGFR-Tb) were added, and the cells were incubated at 25° C. for 60 minutes. The HTRF fluorescence value was measured with CLARIOstar (BMG LABTECH) after the incubation, and IC50 was determined using GraphPad Prism 5.0.

EGFR wild type = target: T3, EGFR wild type (Homo sapiens, UniProt P00533); assay: HTRF kinase activity assay, EGFR wild type; format: biochemical; details: 10 μM ATP, read-out: In vitro enzymatic activity IC50, EGFR
T3 construct: purchased Invitrogen Corporation Shanghai Representative Office
Protocol: as §1, §2

T2 sequence (P00533 with tags, fused parts or gaps DEL746-750): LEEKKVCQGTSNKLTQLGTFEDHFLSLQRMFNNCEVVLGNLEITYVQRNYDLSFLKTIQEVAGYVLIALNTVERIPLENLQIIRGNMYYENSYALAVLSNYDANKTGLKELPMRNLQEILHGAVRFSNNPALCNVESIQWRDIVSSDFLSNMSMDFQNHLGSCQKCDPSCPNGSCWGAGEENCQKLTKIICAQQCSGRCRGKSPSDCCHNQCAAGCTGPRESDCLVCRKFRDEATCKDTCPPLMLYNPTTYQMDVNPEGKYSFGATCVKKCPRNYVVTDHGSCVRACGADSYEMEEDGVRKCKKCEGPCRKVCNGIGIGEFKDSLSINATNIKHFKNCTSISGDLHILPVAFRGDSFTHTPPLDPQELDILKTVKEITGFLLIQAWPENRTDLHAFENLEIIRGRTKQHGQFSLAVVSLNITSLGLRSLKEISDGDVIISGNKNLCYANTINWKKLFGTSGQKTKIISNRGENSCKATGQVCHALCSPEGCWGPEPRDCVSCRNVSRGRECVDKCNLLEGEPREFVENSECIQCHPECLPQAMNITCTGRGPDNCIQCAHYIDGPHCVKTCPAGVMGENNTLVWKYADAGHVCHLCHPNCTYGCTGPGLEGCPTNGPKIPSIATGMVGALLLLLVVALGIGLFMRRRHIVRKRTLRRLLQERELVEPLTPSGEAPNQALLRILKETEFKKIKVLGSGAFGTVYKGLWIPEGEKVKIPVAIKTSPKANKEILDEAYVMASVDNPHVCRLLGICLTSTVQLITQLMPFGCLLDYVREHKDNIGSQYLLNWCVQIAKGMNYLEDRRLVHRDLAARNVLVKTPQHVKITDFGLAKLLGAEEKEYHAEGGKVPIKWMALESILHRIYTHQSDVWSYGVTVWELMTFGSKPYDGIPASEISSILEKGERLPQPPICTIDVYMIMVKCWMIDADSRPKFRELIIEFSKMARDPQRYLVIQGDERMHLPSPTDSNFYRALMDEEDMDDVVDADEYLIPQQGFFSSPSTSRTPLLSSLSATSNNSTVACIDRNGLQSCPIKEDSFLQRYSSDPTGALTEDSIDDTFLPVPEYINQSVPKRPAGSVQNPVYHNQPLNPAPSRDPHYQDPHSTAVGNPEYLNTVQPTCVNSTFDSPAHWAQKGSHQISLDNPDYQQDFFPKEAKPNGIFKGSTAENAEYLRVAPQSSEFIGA
T1 sequence (Q12809 whole entry): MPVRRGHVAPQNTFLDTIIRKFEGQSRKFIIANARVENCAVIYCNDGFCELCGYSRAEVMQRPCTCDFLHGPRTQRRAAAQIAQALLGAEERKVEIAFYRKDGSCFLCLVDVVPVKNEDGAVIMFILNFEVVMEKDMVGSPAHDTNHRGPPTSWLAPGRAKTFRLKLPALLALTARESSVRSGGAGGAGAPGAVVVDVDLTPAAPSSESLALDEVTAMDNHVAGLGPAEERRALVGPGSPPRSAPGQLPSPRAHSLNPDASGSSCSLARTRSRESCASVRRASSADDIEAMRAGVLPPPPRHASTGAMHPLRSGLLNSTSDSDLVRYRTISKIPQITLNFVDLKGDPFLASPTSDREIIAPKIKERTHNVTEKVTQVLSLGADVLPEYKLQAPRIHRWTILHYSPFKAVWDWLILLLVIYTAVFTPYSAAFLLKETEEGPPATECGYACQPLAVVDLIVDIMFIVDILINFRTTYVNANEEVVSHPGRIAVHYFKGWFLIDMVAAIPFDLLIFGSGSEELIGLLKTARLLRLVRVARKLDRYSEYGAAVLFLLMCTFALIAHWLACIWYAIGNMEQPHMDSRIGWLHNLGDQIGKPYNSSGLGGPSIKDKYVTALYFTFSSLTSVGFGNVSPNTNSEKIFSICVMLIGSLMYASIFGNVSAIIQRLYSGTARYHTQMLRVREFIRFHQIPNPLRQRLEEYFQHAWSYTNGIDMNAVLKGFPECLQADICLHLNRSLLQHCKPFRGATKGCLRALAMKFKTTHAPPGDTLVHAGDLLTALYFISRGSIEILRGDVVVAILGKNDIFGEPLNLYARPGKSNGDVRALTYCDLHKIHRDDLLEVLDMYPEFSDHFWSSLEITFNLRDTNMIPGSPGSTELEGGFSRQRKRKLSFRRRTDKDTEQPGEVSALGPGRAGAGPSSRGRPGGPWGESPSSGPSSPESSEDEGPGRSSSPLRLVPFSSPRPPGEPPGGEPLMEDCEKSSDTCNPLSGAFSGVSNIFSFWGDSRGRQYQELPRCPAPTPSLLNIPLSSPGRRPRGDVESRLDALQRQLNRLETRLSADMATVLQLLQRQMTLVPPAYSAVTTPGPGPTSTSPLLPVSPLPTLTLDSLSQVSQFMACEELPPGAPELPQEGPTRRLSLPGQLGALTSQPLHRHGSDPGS
Sequence of EGFR (L858R) single mutant (P00533 25-1210 L858R): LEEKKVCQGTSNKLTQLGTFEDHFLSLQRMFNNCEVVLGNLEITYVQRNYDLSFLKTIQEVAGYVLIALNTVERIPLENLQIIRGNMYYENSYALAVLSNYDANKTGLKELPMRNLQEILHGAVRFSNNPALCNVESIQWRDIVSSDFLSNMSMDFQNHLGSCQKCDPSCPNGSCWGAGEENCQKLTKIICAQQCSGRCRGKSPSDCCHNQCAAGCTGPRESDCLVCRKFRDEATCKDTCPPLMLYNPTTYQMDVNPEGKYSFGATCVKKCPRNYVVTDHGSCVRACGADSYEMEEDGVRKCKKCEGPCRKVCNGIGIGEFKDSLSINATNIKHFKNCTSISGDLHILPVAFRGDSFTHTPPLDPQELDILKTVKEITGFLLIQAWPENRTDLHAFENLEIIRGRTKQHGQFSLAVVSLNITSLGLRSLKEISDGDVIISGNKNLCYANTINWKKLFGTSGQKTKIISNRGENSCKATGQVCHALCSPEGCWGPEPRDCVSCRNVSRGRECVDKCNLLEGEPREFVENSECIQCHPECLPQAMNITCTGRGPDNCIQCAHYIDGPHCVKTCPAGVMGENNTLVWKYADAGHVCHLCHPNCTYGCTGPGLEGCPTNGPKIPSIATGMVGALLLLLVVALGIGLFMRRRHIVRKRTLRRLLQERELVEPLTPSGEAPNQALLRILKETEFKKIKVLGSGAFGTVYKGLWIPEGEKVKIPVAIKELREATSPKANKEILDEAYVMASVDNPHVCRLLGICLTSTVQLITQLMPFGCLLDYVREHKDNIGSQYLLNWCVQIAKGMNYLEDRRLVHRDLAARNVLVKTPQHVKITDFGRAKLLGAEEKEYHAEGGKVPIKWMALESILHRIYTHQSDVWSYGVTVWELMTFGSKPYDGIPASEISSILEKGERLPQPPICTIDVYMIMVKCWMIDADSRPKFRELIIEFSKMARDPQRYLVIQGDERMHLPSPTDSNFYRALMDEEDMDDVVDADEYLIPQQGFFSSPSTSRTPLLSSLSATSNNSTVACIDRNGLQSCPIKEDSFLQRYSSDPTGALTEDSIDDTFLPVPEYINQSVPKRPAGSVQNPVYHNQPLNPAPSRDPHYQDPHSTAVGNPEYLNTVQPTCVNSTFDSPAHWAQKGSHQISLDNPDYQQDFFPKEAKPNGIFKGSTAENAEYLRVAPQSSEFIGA
Sequence of wild type EGFR in A431 cells (P00533 25-1210): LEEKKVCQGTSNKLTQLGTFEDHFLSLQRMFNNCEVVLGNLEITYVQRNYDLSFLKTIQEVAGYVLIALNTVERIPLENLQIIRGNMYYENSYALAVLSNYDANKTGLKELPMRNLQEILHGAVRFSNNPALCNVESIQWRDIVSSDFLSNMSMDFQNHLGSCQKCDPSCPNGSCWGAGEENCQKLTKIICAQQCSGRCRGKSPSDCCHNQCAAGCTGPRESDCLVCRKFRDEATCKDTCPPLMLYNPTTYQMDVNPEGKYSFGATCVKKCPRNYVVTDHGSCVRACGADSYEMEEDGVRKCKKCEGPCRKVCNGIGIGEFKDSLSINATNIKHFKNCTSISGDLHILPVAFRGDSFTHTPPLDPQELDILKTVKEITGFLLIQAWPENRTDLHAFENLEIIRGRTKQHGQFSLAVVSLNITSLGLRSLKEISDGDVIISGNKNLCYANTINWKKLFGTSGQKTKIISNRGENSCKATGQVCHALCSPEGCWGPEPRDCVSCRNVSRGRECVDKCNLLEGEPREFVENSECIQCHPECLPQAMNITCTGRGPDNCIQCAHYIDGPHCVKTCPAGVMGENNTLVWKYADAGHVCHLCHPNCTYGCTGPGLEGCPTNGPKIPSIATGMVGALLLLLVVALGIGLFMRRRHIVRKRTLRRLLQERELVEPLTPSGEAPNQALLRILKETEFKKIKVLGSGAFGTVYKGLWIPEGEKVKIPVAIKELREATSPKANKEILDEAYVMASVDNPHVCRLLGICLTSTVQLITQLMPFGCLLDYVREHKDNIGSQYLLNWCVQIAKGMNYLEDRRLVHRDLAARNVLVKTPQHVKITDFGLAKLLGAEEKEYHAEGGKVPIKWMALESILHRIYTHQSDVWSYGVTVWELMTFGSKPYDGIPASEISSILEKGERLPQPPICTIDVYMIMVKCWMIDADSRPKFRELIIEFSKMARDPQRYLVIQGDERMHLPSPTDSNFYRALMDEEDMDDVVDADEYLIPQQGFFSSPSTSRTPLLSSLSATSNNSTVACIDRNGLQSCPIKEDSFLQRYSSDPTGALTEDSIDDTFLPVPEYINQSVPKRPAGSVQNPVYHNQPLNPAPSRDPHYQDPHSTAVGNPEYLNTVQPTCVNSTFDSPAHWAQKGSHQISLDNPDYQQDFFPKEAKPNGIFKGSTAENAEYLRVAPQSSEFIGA

Compound	IC50 (hERG potassium channels) [nM]	IC50 [1] [nM]	IC50 [2] [nM]	IC50 [3] [nM]	IC50 (EGFR wild type) [nM]
[2H]C([2H])([2H])N(C)CCN(C)c1cc(OC)c(Nc2nccc(-c3cn4c5c(cccc35)CCC4)n2)cc1NC(=O)C=C [Compound 11]	1850	11.5	101	730	38
[2H]C([2H])([2H])N(CCN(C)C)c1cc(OC)c(Nc2nccc(-c3cn4c5c(cccc35)CCC4)n2)cc1NC(=O)C=C [Compound 24]	1970	8.99	78.1	520	15.7
[2H]C([2H])([2H])N(CCN(C)c1cc(OC)c(Nc2nccc(-c3cn4c5c(cccc35)CCC4)n2)cc1NC(=O)C=C)C([2H])([2H])[2H] [Compound 16]	2670	11.6	103	732	27
[2H]C([2H])([2H])NCCN(C)c1cc(OC)c(Nc2nccc(-c3cn4c5c(cccc35)CCC4)n2)cc1NC(=O)C=C [Compound 34]	–	14.1	–	–	35.4
